Results as given in US6303639A, “Propanolamine derivatives substituted by heterocyclic radicals, processes for their preparation, pharmaceuticals comprising these compounds and their use” (Aventis Pharma Deutschland GmbH, priority 1998, dated 2001).

What follows are compounds tested against T1, Na+-dependent bile acid transportation system (intestinal bile acid transportation system in the terminal small intestine) (Oryctolagus cuniculus, UniProt Q28727) (assay: Inhibition of Na+-dependent [3H]-taurocholate uptake in brush border membrane vesicles of the ileum of rabbits). Conditions: rabbit ileum brush border membrane vesicles, 50 μM taurocholate, usually 1 minute incubation.
T1 construct: Brush border membrane vesicles from the intestinal cells of the small intestine were prepared by the so-called Mg^2+ precipitation method; from tissue; host or cells: brush border membrane vesicles from the terminal 7/10 of the small intestine (ileum) of male New Zealand rabbits
T1 sequence (Q28727 1-347): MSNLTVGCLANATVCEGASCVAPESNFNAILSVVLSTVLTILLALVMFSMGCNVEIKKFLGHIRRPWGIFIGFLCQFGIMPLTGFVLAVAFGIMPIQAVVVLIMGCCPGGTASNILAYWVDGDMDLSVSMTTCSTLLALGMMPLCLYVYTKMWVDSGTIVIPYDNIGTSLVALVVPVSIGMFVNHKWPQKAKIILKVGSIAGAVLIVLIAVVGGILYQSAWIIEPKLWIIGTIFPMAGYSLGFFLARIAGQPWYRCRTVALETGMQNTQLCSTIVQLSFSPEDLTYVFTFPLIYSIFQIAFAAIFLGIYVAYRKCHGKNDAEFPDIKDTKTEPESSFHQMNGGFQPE
Type: biochemical
Method: Biological testing of the compounds according to the invention was carried out by determining the inhibition of [^3 H]-taurocholate uptake in brush border membrane vesicles of the ileum of rabbits. The inhibition test was carried out as described below.
Test 1. Preparation of Brush Border Membrane Vesicles from the Ileum of Rabbits
Brush border membrane vesicles from the intestinal cells of the small intestine were prepared by the so-called Mg^2+ precipitation method as follows. Male New Zealand rabbits (2 to 2.5 kg body weight) were sacrificed by intravenous injection of 0.5 ml of T61®, an aqueous solution of 2.5 mg of tetracaine HCl, 100 mg of embutramide and 25 mg of mebezonium iodide. The small intestine was removed and flushed with ice-cold physiological saline solution. The terminal 7/10 of the small intestine (measured in the oral-rectal direction, i.e. the terminal ileum, which contains the active Na^+ -dependent bile acid transportation system) was used for preparation of the brush border membrane vesicles. The intestines were frozen in plastic bags under nitrogen at -80° C.
For preparation of the membrane vesicles, the frozen intestines were thawed at 30° C. in a water-bath. The mucosa were peeled off and suspended in 60 ml of ice-cold 12 mM TRIS-HCl buffer (pH 7.1)/300 mM mannitol, 5 mM EGTA/10 mg/l of phenylmethyl-sulfonyl fluoride/1 mg/l of trypsin inhibitor from soybeans (32 U/mg)/0.5 mg/l of trypsin inhibitor from the bovine lung (193 U/mg)/5 mg/l of bacitracin. After dilution to 300 ml with ice-cold distilled water, the mixture was homogenized with an Ultraturrax (18-rod, IKA Werk Staufen, Germany) for 3 minutes at 75% of the maximum power, while cooling with ice. After addition of 3 ml of 1 M MgCl2 solution (final concentration 10 mM), the mixture was left to stand for exactly 1 minute at 0° C. The cell membranes aggregated by addition of Mg^2+ and precipitated, with the exception of the brush border membranes. After centrifugation for 15 minutes at 3000×g (5000 rpm, SS-34 rotor), the precipitate was discarded and the supernatant, which contained the brush border membranes, was centrifuged at 48000×g (20000 rpm, SS-34 rotor) for 30 minutes. The supernatant was discarded and the precipitate was rehomogenized in 60 ml of 12 mM TRIS/HCI buffer (pH 7.1)/60 mM mannitol, 5 mM EGTA with a Potter Elvejhem homogenizer (Braun, Melsungen, 900 rpm, 10-stroke). After addition of 0.1 ml of 1 M MgCl2 solution and an incubation time of 15 minutes at 0° C., the mixture was centrifuged again at 3000×g for 15 minutes. The supernatant was then centrifuged again at 48000×g (20000 rpm, SS-34 rotor) for 30 minutes. The precipitate was taken up in 30 ml of 10 mM TRIS/HEPES buffer (pH 7.4)/300 mM mannitol and resuspended by 20 strokes in a Potter Elvejhem homogenizer at a 1000 rpm. After centrifugation at 48000×g (20000 rpm, SS-34 rotor) for 30 minutes, the precipitate was taken up in 0.5 to 2 ml of TRIS/HEPES buffer (pH 7.4)/280 mM mannitol (final concentration 20 mg/ml) and resuspended with the aid of a tuberculin syringe with a 27-gauge needle. The vesicles were either used for the transportation investigations directly after the preparation, or stored in 4 mg portions in liquid nitrogen at -196° C.
Test 2. Inhibition of the Na^+ -dependent [^3 H]Taurocholate Uptake in Brush Border Member Vesicles of the Ileum
The uptake of substrates into the brush border membrane vesicles described above was determined by means of the so-called membrane filtration technique. 10 μl of the vesicle suspension (100 μg of protein) were pipetted as drops onto the wall of a polystyrene incubation tube (11×70 mm) which contained the incubation medium with the corresponding ligands (90 μl). […]

| Biological Test: quotient of the IC50Na values of the reference substance taurochenodeoxycholate (TCDC) and of the test substance | SMILES |
| --- | --- |
| 9.53 | COc1ccsc1C(O)C(c1ccccn1)C(Nc1ccccn1)c1ccccc1 (stereo not shown) [Example 37] |
| 0.65 | Cc1nc(C)c(C(O)C(c2ccccn2)C(Nc2ccccn2)c2ccccc2N)s1 (stereo not shown) [Example 39] |
| 0.60 | OC(c1cc(-c2ccccc2)on1)C(c1ccccn1)C(Nc1ccccn1)c1ccccc1 (stereo not shown) [Example 41] |
| 0.87 | Cn1ccnc1C(O)C(c1ccccn1)C(Nc1ccccn1)c1ccccc1 (stereo not shown) [Example 42] |
| 0.23 | Cc1noc(C)c1C(O)C(c1ccccn1)C(Nc1ccccn1)c1ccccc1[N+](=O)[O-] (stereo not shown) [Example 43] |
| 0.74 | Cc1noc(C)c1C(O)C(c1ccccn1)C(Nc1ccccn1)c1ccccc1N (stereo not shown) [Example 44] |
| 0.22 | OC(c1cc2ccccc2[nH]1)C(c1ccccn1)C(Nc1ccccn1)c1ccccc1 (stereo not shown) [Example 46] |
| 0.35 | Cn1ncnc1C(O)C(c1ccccn1)C(Nc1ccccn1)c1ccccc1 (stereo not shown) [Example 47] |
| 0.80 | Cc1nc(C(O)C(c2ccccn2)C(Nc2ccccn2)c2ccccc2N)c(C)o1 (stereo not shown) [Example 48] |
| 0.77 | Cc1cc(C(O)C(c2ccccn2)C(Nc2ccccn2)c2ccccc2N)no1 (stereo not shown) [Example 49] |
| 0.79 | Cc1nc(-c2ccncc2)sc1C(O)C(c1ccccn1)C(Nc1ccccn1)c1ccccc1 (stereo not shown) [Example 50] |
| 0.52 | Cc1nc(-c2ccncc2)sc1C(O)C(c1ccccn1)C(Nc1ccccn1)c1ccccc1 (stereo not shown) [Example 51] |
| 0.40 | Cc1nc(-c2ccncc2)sc1C(O)C(c1ccccn1)C(Nc1ccccn1)c1ccccc1 (stereo not shown) [Example 52] |
| 0.31 | Nc1ccccc1C(Nc1ccccn1)C(c1ccccn1)C(O)c1ccon1 (stereo not shown) [Example 55] |

Second part, the compound before the results:

| SMILES | Biological Test: quotient of the IC50Na values of the reference substance taurochenodeoxycholate (TCDC) and of the test substance |
| --- | --- |
| OC(c1ccccc1)C(c1ccc2ccccc2n1)C(Nc1ccccn1)c1ccccc1 (stereo not shown) [Example 2] | 0.83 |
| OC(c1nccs1)C(c1ccccc1)C(Nc1ccccn1)c1ccccc1 (stereo not shown) [Example 4] | 0.1 |
| OC(c1ccccc1)C(c1cnc2ccccc2n1)C(Nc1ccccn1)c1ccccc1 (stereo not shown) [Example 6] | 0.57 |
| OC(c1ccccc1)C(c1cnc2ccccc2n1)C(Nc1ccccn1)c1ccccc1 (stereo not shown) [Example 7] | 0.22 |
| OC(c1ccccc1)C(c1cnc2ccccc2c1)C(Nc1ccccn1)c1ccccc1 (stereo not shown) [Example 9] | 0.35 |
| OC(c1cnccn1)C(c1ccccn1)C(Nc1ccccn1)c1ccccc1 (stereo not shown) [Example 11] | 0.24 |
| OC(c1cnccn1)C(c1ccccn1)C(Nc1ccccn1)c1ccccc1 (stereo not shown) [Example 12] | 0.24 |
| Cc1nc(C)c(C(O)C(c2ccccn2)C(Nc2ccccn2)c2ccccc2)s1 (stereo not shown) [Example 14] | 0.66 |
| OC(c1cnc2ccccc2c1)C(c1ccccn1)C(Nc1ccccn1)c1ccccc1 (stereo not shown) [Example 18] | 0.37 |
| OC(c1cnc2ccccc2c1)C(c1ccccn1)C(Nc1ccccn1)c1ccccc1 (stereo not shown) [Example 19] | 0.42 |
| OC(c1cnc2ccccc2c1)C(c1ccccn1)C(Nc1ccccn1)c1ccccc1 (stereo not shown) [Example 20] | 0.23 |
| OC(c1cccs1)C(c1ccccn1)C(Nc1ccccn1)c1ccccc1 (stereo not shown) [Example 21] | 1.16 |
| OC(c1cccs1)C(c1ccccn1)C(Nc1ccccn1)c1ccccc1 (stereo not shown) [Example 22] | 0.19 |
| OC(c1cccs1)C(c1ccccn1)C(Nc1ccccn1)c1ccccc1 (stereo not shown) [Example 23] | 0.23 |
| OC(c1cccs1)C(c1ccccn1)C(Nc1ccccn1)c1ccccc1 (stereo not shown) [Example 24] | 0.22 |
| Cc1nc(C(O)C(c2ccccn2)C(Nc2ccccn2)c2ccccc2)c(C)o1 (stereo not shown) [Example 25] | 0.46 |
| OC(c1ccc(Cl)s1)C(c1ccccn1)C(Nc1ccccn1)c1ccccc1 (stereo not shown) [Example 26] | 0.26 |
| Cc1ccc(C(O)C(c2ccccn2)C(Nc2ccccn2)c2ccccc2)s1 (stereo not shown) [Example 27] | 1.02 |
| Cc1noc(C)c1C(O)C(c1ccccn1)C(Nc1ccccn1)c1ccccc1 (stereo not shown) [Example 31] | 0.37 |
| Cc1nc(C(O)C(c2ccccn2)C(Nc2ccccn2)c2ccccc2)sc1C (stereo not shown) [Example 33] | 0.24 |
